# From ChEMBL document CHEMBL1151293, “End-Product Regulation of Ergot Alkaloid Formation in Intact Cells and Protoplasts of Claviceps Species, Strain SD 58” (1980)
# Columns and labels:
# Claviceps [1] = experiment: Inhibition of DMAT synthase in Claviceps SD 58 assessed as conversion of 1-14C]dimethylallylpyrophosphate to dimethylallyltryptophan at 3 mM after 5 days; parameters: scale not given: the % may be the effect or the level left
# Claviceps [2] = experiment: Inhibition of alkaloid biosynthesis in Claviceps SD 58 protoplast assessed as incorporation of L-[methylene-14C] tryptophan at 4 mM relative to control; format: functional; parameters: scale not given: the % may be the effect or the level left
# Claviceps [3] = experiment: Inhibition of alkaloid biosynthesis in intact cells of Claviceps SD 58 assessed as incorporation of L-[methylene-14C] tryptophan at 3 mM after 24 hrs relative to control; format: functional
# Claviceps [4] = experiment: Inhibition of alkaloid biosynthesis in intact cells of Claviceps SD 58 assessed as incorporation of L-[methylene-14C] tryptophan at 3 mM; format: functional
smiles,measurement,setting,value
CC1=C[C@@H]2c3cccc4[nH]cc(c34)C[C@H]2N(C)C1,Activity,Claviceps [1],90%
CN1CC(CO)=C[C@@H]2c3cccc4[nH]cc(c34)C[C@H]21 [listing 1 of 3 here],Activity,Claviceps [1],70%
CN1CC(CO)=C[C@@H]2c3cccc4[nH]cc(c34)C[C@H]21 [listing 2 of 3 here],Activity,Claviceps [2],50%
same,fold change (FC),Claviceps [3],2
CN1CC(CO)=C[C@@H]2c3cccc4[nH]cc(c34)C[C@H]21 [listing 3 of 3 here],inhibition at 3000 µM,Claviceps [4],29%
